Common to all, as to format: cell-based, human
Data set [1] relates to A2780 ovarian carcinoma cells. Description: In vitro cytotoxicity (MTT assay), A2780. How it is done:
(§1) The reference normal cell line of human fetal fibroblasts (MRC-5) was obtained from the same commercial source and maintained according to the producer’s instructions. The half-maximal inhibitory concentrations (IC50) were calculated from dose–response curves by means of the GraphPad Prism 6 software (GraphPad Software, San Diego, CA, USA).
Background: Formazan colour is commonly taken as a measure of viable cells.

The subject of data set [2] is A2780 cells. Description: Induction of autophagy (CYTO-ID kit). The following applies: A2780, half-cytotoxic concentration, 24 h. Here is the method:
The induction of autophagy by complex (1) was studied using a CYTO-ID® Autophagy Detection Kit 2.0 (ENZO, New York, NY, USA) according to the manufacturer’s protocol. Briefly, the A2780 cells were seeded in a 24-well cell culture plate at 5 × 10^4 cells per well and cultivated for 24 h. The next day, the cells were treated with complex (1) at 4 µM. […] Then, the cells were stained with CYTO-ID® Green stain solution and incubated for 30 min in the dark. After the final wash with PBS, the cell suspensions were analyzed using the BD FACSVerse flow cytometer (Becton Dickinson, USA) in three separate experiments, while at least 10^4 events were recorded for each sample prepared in duplicates. The cells incubated with the mixture of chloroquine (10 µM) and rapamycin (0.5 µM) for 18 h were used as a positive control.

Data set [3] deals with PC-3 prostate adenocarcinoma cells. As to the kind of experiment: In vitro cytotoxicity (MTT assay), PC-3. The following applies: ± standard deviation, triplicate. How it is done: as §1, with “The testing was performed on the ovarian carcinoma (A2780), Cisplatin-resistant ovarian carcinoma (A2780R), prostate adenocarcinoma (PC-3), prostate carcinoma (22Rv1), and leukemia monocytic (THP-1) and intestinal colon adenocarcinoma (LS180) human cell lines that were obtained from the ATCC collection of cell lines and cultivated according to the producer’s instructions. The reference” for “The reference”

The subject of data set [4] is A2780R Cisplatin-resistant ovarian carcinoma cells. Description: In vitro cytotoxicity (MTT assay), A2780R. To be noted: ± standard deviation, triplicate. Here is the method: as §1, with “The testing was performed on the ovarian carcinoma (A2780), Cisplatin-resistant ovarian carcinoma (A2780R), prostate adenocarcinoma (PC-3), prostate carcinoma (22Rv1), and leukemia monocytic (THP-1) and intestinal colon adenocarcinoma (LS180) human cell lines that were obtained from the ATCC collection of cell lines and cultivated according to the producer’s instructions. The reference” for “The reference”

The test system of data set [5] is A2780 cells. As to the kind of experiment: Induction of apoptosis, Annexin V-FITC/PI staining. To be noted: A2780, half-cytotoxic concentration, 24 h. Here is the method:
(§2) The induction of cell death by complex (1) was studied by two methods in the A2780 cell line. Firstly, the induction of apoptosis was tested using an Annexin V-FITC/PI commercial kit (V13242, Thermo Fisher Scientific, USA). Second, caspase 3/7 activation was monitored using the CellEvent™ Caspase-3/7 Green Flow Cytometry Assay Kit (C10427, Thermo Fisher Scientific, USA). Both assays were performed according to the manufacturers’ protocols with one modification in the caspase induction assay: the use of CellEvent^TM Caspase-3/7 Green Detection Reagent was only for the detection of caspase 3/7 activation. The general procedure was as follows: 5 × 10^4 cells per well were seeded in a 24-well cell culture plate, and after 24 h, the cells were treated with 4 µM solution of complex (1) and cultivated for next 24 h. […] The trypsin was blocked by adding the cell culture medium to a final volume of 500 µL, and the resulting cell suspensions were divided into two separate 250 µL aliquots. The first set of aliquots was used to evaluate the Annexin V-FITC/PI assay, whilst the second one was used for the caspase 3/7 activation assay. Both assays were performed using a BD FACSVerse flow cytometer (Becton Dickinson, USA) in three independent experiments, each performed in duplicate.

The next data set has as its system caspases 3/7. Description: Caspase 3/7 activation (flow cytometry). To be noted: A2780, half-cytotoxic concentration, 24 h. Here is the method: as §2
On the technique in general: A flow cytometer gives signals particle by particle.

For a further data set, the system named is THP1-Blue™ NF-κB cells. Description: Cell viability, CCK-8, serum-free medium. Here is the method: The cells were cultivated in RPMI (Roswell Park Memorial Institute) 1640 medium (Biosera; Nuaille, France) supplemented with 10% fetal bovine serum (FBS) and antibiotics (100 U/mL penicillin and […] streptomycin) (both from Merck). All further experiments were performed in serum-free medium. The effect of the test compounds dissolved in DMF on cell viability after 24 h incubation was determined using a Cell Counting Kit-8 (CCK-8; Merck) according to the manufacturer’s instructions, similarly as previously described.

The test system of data set [6] is A2780 cells. As to the kind of experiment: Mitochondrial membrane potential analysis (MITO-ID). To be noted: A2780, half-cytotoxic concentration, 24 h. How it is done: The A2780 cells were seeded in 24-well cell culture plates at 5 × 10^4 cells/well and cultivated for 24 h. The next day, the complex (1) was added to a final concentration of 4 µM, and the cells were incubated for another 24 h. […] The cells were then isolated by centrifugation and resuspended in a staining solution prepared according to the manufacturer’s protocol from a MITO-ID® Membrane Potential Detection kit (Enzo Life Sciences, USA). Finally, the cells were analyzed using a BD FACSVerse flow cytometer (Becton Dickinson, USA). The control was carried out by treatment with 2 µM carbonyl cyanide 3-chlorophenylhydrazone (CCCP). Three independent experiments were conducted, each in duplicate.

[7] abbreviates: MTT, 24 h incubation, ± standard deviation, triplicate, read-out: IC50, A2780.

Structures are written as SMILES. Like-named read-outs stand apart in the source and are kept apart here.

With `[Cl][Au].c1ccc(P(c2ccccc2)c2ccccc2)cc1` [[Au(PPh3)Cl]], the half-maximal inhibitory concentration (IC50) – broadly, the point on the concentration scale where inhibition reaches its midpoint – in data set [1] (setting [7]) is 3.5 ± 0.5 µM; in data set [1] (read-out: IC50, A2780, after 48 h and 72 h incubation, 48 h and 72 h incubation, insignificant changes), ~3 µM; in data set [3], 9.9 ± 0.4 µM; in data set [4], 5.2 ± 0.2 µM; with THP1-Blue™ NF-κB cells, 1.1 ± 1.1 µM. For the same compound, the “Induction of autophagy” value in the data set with A2780 cells [2] is listed as “significantly induced the autophagy”. In addition, the “Cells in early stage apoptosis (Annexin V+/PI-)” value with A2780 cells [5] is “around 10%”. In the data set on A2780 cells [5], the “Cells in late stage apoptosis (Annexin V+/PI+)” value is listed as “around 30%”. Further, in the data set with caspases 3/7, the “Cells with active executioner caspases 3/7” value is given as “around 50%”. In addition, in the data set with A2780 cells [6], the “Damage to mitochondrial membranes” value is “Significant changes in mitochondrial membrane permeability”.

Consider `CC[PH](CC)(CC)[Au][S][C@@H]1O[C@H](COC(C)=O)[C@@H](OC(C)=O)[C@H](OC(C)=O)[C@H]1OC(C)=O` [Auranofin, [3,4,5-triacetyloxy-6-(acetyloxymethyl)-oxane-2-thiolate-(triethylphosphine)gold(I)]], for which the IC50 in data set [1] (24 h incubation, read-out: Time-dependent in vitro cytotoxicity (IC50), A2780, 24 h) amounted to 3.4 ± 0.9 µM; in data set [1] (72 h incubation, read-out: Time-dependent in vitro cytotoxicity (IC50), A2780, 72 h) it was 2 ± 0.1 µM; in data set [1] (setting [7]), 3.4 ± 0.9 µM; in data set [1] (read-out: Time-dependent in vitro cytotoxicity (IC50), A2780, 48 h, 48 h incubation), 2.1 ± 0.4 µM; in data set [3] it was 3.7 ± 0.7 µM; in data set [4], 3.4 ± 0.6 µM. The IC50 in the data set with THP1-Blue™ NF-κB cells (THP1-Blue NF-κB cells, serum-free medium, 24 h treatment, CCK-8, read-out: IC50 ± SEM, cytotoxic effect) was determined as 0.5 ± 1.1 µM. Further, the “Induction of autophagy” value in the data set on A2780 cells [2] is reported as “not shown to cause metabolic stress strong enough to induce the autophagy”. Also, the “Cells in late stage apoptosis (Annexin V+/PI+)” value in the data set on A2780 cells [5] is “around 80%”. For the same compound, the “Activation of caspases 3/7” value in the data set with caspases 3/7 is given as “the most effective gold(I) complex”. Also, the “Cells with loss of mitochondrial membrane potential” value in the data set on A2780 cells [6] is reported as “more than 80%”.

Values taken from PMC9916778 (International Journal of Molecular Sciences, 2023).
